Reference: patent US20240101544A1, “INHIBITORS OF QPCTL AND QPCT” (priority 2022, published 2024)

How the values were obtained:
QPCTL [1] = biological target: T1, QPCTL (Homo sapiens (Human), UniProt Q9NXS2); experiment: QPCTL Enzymatic Activity Assay (coupled-enzyme fluorescent assay, H-Gln-AMC substrate); assay type: biochemical; details: recombinant truncated human QPCTL 10-12 nM, 10 μM H-Gln-AMC; read-out: QPCTL Inhibition IC50
Target sequence in this assay (Q9NXS2 53-382): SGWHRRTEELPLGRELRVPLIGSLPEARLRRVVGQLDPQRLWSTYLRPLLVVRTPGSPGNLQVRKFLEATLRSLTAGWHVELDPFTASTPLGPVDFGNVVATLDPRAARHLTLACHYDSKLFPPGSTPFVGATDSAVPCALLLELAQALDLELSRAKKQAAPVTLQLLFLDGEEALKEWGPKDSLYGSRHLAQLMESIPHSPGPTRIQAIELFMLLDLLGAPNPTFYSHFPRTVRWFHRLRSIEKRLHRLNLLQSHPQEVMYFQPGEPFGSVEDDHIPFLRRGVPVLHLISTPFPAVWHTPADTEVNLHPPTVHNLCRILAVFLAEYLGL

QPCTL [2] = biological target: T1, QPCTL; experiment: Inhibition of Cellular QPCTL Activity - FACS flow cytometry, CC2C6 anti-CD47 staining of Ramos cells; assay type: cell-based; details: Ramos human Burkitts Lymphoma cells, 72-96 hours, % CC2C6-positive cells
Procedure: Inhibition of Cellular QPCTL Activity—Fluorescence-Activated Cell Sorting (FACS) Flow Cytometry
The cells were incubated for 72-96 hours at 37° C. and 5% CO2. At the end of incubation period, cells were transferred to tubes and spun down at 1200 rpm for 5 minutes. […] After antibody staining, the cells were washed with FACS buffer then stained with SYTOX™ Blue dead cell stain at a dilution of 1:1000. Cells were analyzed on a BD FACS Melody and a positive staining gate on live cells was set using the 0.1% DMSO controls. […] Flow cytometry data were analyzed by FlowJo software and concentration-response-curves and IC50 values were generated using Collaborative Drug Discovery software.
Target sequence in this assay (Q9NXS2 whole entry, the tested form may be a part): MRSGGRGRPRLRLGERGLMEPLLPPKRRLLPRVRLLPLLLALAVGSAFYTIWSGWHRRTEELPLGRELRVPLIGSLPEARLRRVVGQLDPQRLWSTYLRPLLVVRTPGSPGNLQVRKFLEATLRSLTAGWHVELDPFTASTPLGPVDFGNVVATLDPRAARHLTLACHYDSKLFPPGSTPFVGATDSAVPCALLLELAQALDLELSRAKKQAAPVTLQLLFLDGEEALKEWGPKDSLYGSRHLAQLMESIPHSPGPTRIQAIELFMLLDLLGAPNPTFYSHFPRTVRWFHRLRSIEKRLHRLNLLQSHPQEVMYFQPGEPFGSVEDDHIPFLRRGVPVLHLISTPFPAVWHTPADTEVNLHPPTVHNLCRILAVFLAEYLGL

QPCT (rhQPCT) = QPCT (rhQPCT) (Homo sapiens (Human), UniProt Q16769); experiment: QPCT Enzymatic Activity Assay (coupled-enzyme fluorescent assay, H-Gln-AMC substrate); assay type: biochemical; details: rhQPCT 10-12 nM, 10 μM H-Gln-AMC; read-out: QPCT Inhibition IC50
Chain of QPCT (rhQPCT) (Q16769 29-361): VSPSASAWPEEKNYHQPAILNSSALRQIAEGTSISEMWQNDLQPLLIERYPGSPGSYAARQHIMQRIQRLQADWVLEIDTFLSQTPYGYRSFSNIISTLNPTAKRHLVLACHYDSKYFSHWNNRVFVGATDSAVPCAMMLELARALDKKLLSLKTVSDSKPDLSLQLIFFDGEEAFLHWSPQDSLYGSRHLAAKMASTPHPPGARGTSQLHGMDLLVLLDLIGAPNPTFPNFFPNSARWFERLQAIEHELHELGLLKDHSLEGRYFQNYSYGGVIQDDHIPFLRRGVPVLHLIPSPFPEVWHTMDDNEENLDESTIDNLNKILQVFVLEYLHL
Method in brief: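 Coupled assay: recombinant human QPCT converts H-Gln-AMC (10 μM final) to pyroglutamyl-AMC, 60 min at 37 °C, stopped by boiling; PGPEP-1 then releases AMC.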

QPCTL [3] = biological target: T1, QPCTL; experiment: Inhibition of Cellular QPCTL Activity - Imaging Assay, CC2C6 anti-CD47 staining of DLD-1 cells; assay type: cell-based; details: 72 hours, CC2C6 anti-CD47 high-content imaging
Procedure: Inhibition of Cellular QPCTL Activity—Imaging Assay
The cells were incubated for 72 hours at 37° C. and 5% CO2. […] After primary antibody staining, the cells were fixed with 4% paraformaldehyde in the incubation buffer for 15 minutes at room temperature. […] Cells were analyzed on a ImageXpress Pico Automated Cell Imaging System (Molecular Devices) using 10× objective (3×3 fields).
Target sequence in this assay (Q9NXS2 whole entry, the tested form may be a part): as the sequence (Q9NXS2 whole entry, the tested form may be a part) above

Row | SMILES | IC50 (QPCTL [1]) | IC50 (QPCTL [2]) | IC50 (QPCT (rhQPCT)) | IC50 (QPCTL [3])
1 | Cn1cnnc1C1CCN(c2c(-c3ccnnc3)ccc(Cl)c2C#N)CC1 [Example 33, 6-chloro-2-[4-(4-methyl-4H-1,2,4-triazol-3-yl)piperidin-1-yl]-3-(pyridazin-4-yl)benzonitrile] | < 100 nM | < 100 nM | < 100 nM | 
2 | CN(C)CCOc1ccc(-c2ccc(F)nc2)c(N2CCC(c3nncn3C)CC2)c1C#N [Example 37, 6-[2-(dimethylamino)ethoxy]-3-(6-fluoropyridin-3-yl)-2-[4-(4-methyl-4H-1,2,4-triazol-3-yl)piperidin-1-yl]benzonitrile] | < 100 nM | < 100 nM | < 100 nM | 
3 | Cn1cnnc1C1CCN(c2c(-c3ccc(F)nc3)ccc(-c3ccccc3)c2C#N)CC1 [Example 28, 4-(6-fluoropyridin-3-yl)-3-[4-(4-methyl-4H-1,2,4-triazol-3-yl)piperidin-1-yl]-[1,1′-biphenyl]-2-carbonitrile] | < 100 nM | < 100 nM | < 100 nM | 
4 | Cn1cc(-c2ccc(-c3ccnnc3)c(N3CCC(c4nncn4C)CC3)c2C#N)cn1 [Example 36, 6-(1-methyl-1H-pyrazol-4-yl)-2-[4-(4-methyl-4H-1,2,4-triazol-3-yl)piperidin-1-yl]-3-(pyridazin-4-yl)benzonitrile] | < 100 nM | < 100 nM | < 100 nM | 
5 | Cn1cnnc1C1CCN(c2c(C#N)ccc(F)c2-c2ccnnc2)CC1 [Example 39, 4-fluoro-2-[4-(4-methyl-4H-1,2,4-triazol-3-yl)piperidin-1-yl]-3-(pyridazin-4-yl)benzonitrile] | < 100 nM | 100 to 1000 nM | < 100 nM | 
6 | COc1ccc(-c2ccnnc2)c(N2CCC(c3nncn3C)CC2)c1C#N [Example 26, 6-methoxy-2-[4-(4-methyl-4H-1,2,4-triazol-3-yl)piperidin-1-yl]-3-(pyridazin-4-yl)benzonitrile] | < 100 nM | < 100 nM | < 100 nM | 
7 | Cn1cnnc1C1CCN(c2c(C#N)cccc2-c2ccc3ocnc3c2)CC1 [Example 15, 3-(1,3-benzoxazol-5-yl)-2-[4-(4-methyl-4H-1,2,4-triazol-3-yl)piperidin-1-yl]benzonitrile] | 100 to 1000 nM | 1000 to 10000 nM | < 100 nM | 
8 | Cn1cnnc1C1CCN(c2c(C#N)cccc2-c2ccc3nonc3c2)CC1 [Example 19, 3-(2,1,3-benzoxadiazol-5-yl)-2-[4-(4-methyl-4H-1,2,4-triazol-3-yl)piperidin-1-yl]benzonitrile] | 100 to 1000 nM | 1000 to 10000 nM | < 100 nM | 
9 | Cn1cnnc1C1CCN(c2c(-c3ccc(F)nc3)ccc(-c3c[nH]nc3N)c2C#N)CC1 [Example 92, 6-(3-amino-1H-pyrazol-4-yl)-3-(6-fluoropyridin-3-yl)-2-(4-(4-methyl-4H-1,2,4-triazol-3-yl)piperidin-1-yl)benzonitrile] | < 100 nM |  | < 100 nM | 100 to 1000 nM
10 | Cn1cnnc1C1CCN(c2c(-c3ccc(F)nc3)ccc(-c3cn[nH]c3)c2C#N)CC1 [Example 73, 3-(6-fluoropyridin-3-yl)-2-(4-(4-methyl-4H-1,2,4-triazol-3-yl)piperidin-1-yl)-6-(1H-pyrazol-4-yl)benzonitrile] | < 100 nM |  | < 100 nM | < 100 nM
11 | Cc1cc(-c2ccc(-c3cnn(C)c3)c(C#N)c2N2CCC(c3nncn3C)CC2)cnn1 [Example 48, 6-(1-methyl-1H-pyrazol-4-yl)-2-(4-(4-methyl-4H-1,2,4-triazol-3-yl)piperidin-1-yl)-3-(6-methylpyridazin-4-yl)benzonitrile] | < 100 nM |  | < 100 nM | < 100 nM
12 | Cn1cnnc1C1CCN(c2c(-c3ccc(F)nc3)ccc(-c3cnn4c3OCCC4)c2C#N)CC1 [Example 64, 6-(6,7-dihydro-5H-pyrazolo[5,1-b][1,3]oxazin-3-yl)-3-(6-fluoropyridin-3-yl)-2-(4-(4-methyl-4H-1,2,4-triazol-3-yl)piperidin-1-yl)benzonitrile] | < 100 nM |  | < 100 nM | < 100 nM
13 | Cn1cnnc1C1CCN(c2c(-c3ccc(F)nc3)ccc(Cl)c2C#N)CC1 [Example 30, 6-chloro-3-(6-fluoropyridin-3-yl)-2-[4-(4-methyl-4H-1,2,4-triazol-3-yl)piperidin-1-yl]benzonitrile] | < 100 nM | < 100 nM | < 100 nM | 
14 | Cn1cnnc1C1CCN(c2c(-c3ccc(F)nc3)ccc(OC3CC3)c2C#N)CC1 [Example 76, 6-cyclopropoxy-3-(6-fluoropyridin-3-yl)-2-(4-(4-methyl-4H-1,2,4-triazol-3-yl)piperidin-1-yl)benzonitrile] | < 100 nM |  | < 100 nM | < 100 nM
15 | Cn1cnnc1C1CCN(c2c(C#N)cc(C#N)cc2-c2ccc(F)nc2)CC1 [Example 100, 5-(6-fluoropyridin-3-yl)-4-(4-(4-methyl-4H-1,2,4-triazol-3-yl)piperidin-1-yl)isophthalonitrile] | < 100 nM |  | < 100 nM | < 100 nM

Further lines, results first:

Row | IC50 (QPCTL [1]) | IC50 (QPCTL [2]) | IC50 (QPCT (rhQPCT)) | IC50 (QPCTL [3]) | SMILES
16 | < 100 nM | < 100 nM | < 100 nM |  | Cn1cnnc1C1CCN(c2c(C#N)cccc2-c2ccnnc2)CC1 [Example 11, 2-[4-(4-methyl-4H-1,2,4-triazol-3-yl)piperidin-1-yl]-3-(pyridazin-4-yl)benzonitrile]
17 | < 100 nM | 1000 to 10000 nM | < 100 nM |  | CN(C)CCOc1ccncc1-c1cccc(C#N)c1N1CCC(c2nncn2C)CC1 [Example 8, 3-{4-[2-(dimethylamino)ethoxy]pyridin-3-yl}-2-[4-(4-methyl-4H-1,2,4-triazol-3-yl)piperidin-1-yl]benzonitrile]
18 | < 100 nM | 1000 to 10000 nM | < 100 nM |  | Cn1cnnc1C1CCN(c2c(C#N)cccc2-c2cncc3c2ccn3C)CC1 [Example 12, 3-{1-methyl-1H-pyrrolo[2,3-c]pyridin-4-yl}-2-[4-(4-methyl-4H-1,2,4-triazol-3-yl)piperidin-1-yl]benzonitrile]
19 | < 100 nM | 100 to 1000 nM | < 100 nM |  | COc1ccncc1-c1cccc(C#N)c1N1CCC(c2nncn2C)CC1 [Example 3, 3-(4-methoxypyridin-3-yl)-2-[4-(4-methyl-4H-1,2,4-triazol-3-yl)piperidin-1-yl]benzonitrile]
20 | < 100 nM | 100 to 1000 nM | < 100 nM |  | Cn1cnnc1C1CCN(c2c(C#N)cccc2-c2cccnc2)CC1 [Example 2, 2-[4-(4-methyl-4H-1,2,4-triazol-3-yl)piperidin-1-yl]-3-(pyridin-3-yl)benzonitrile]
21 | < 100 nM | 1000 to 10000 nM | < 100 nM |  | Cn1cnnc1C1CCN(c2c(C#N)cccc2-c2cnccc2OCCO)CC1 [Example 9, 3-[4-(2-hydroxyethoxy)pyridin-3-yl]-2-[4-(4-methyl-4H-1,2,4-triazol-3-yl)piperidin-1-yl]benzonitrile]
22 | < 100 nM | 100 to 1000 nM | < 100 nM |  | Cn1cnnc1C1CCN(c2c(C#N)cccc2-c2cnccc2Cl)CC1 [Example 10, 3-(4-chloropyridin-3-yl)-2-[4-(4-methyl-4H-1,2,4-triazol-3-yl)piperidin-1-yl]benzonitrile]
23 | 100 to 1000 nM | 1000 to 10000 nM | 100 to 1000 nM |  | Cn1cnnc1C1CCN(c2c(C#N)cccc2-c2cncc3c2cnn3C)CC1 [Example 4, 3-{1-methyl-1H-pyrazolo[3,4-c]pyridin-4-yl}-2-[4-(4-methyl-4H-1,2,4-triazol-3-yl)piperidin-1-yl]benzonitrile]
24 | < 100 nM | 100 to 1000 nM | < 100 nM |  | Cn1cc2c(-c3cccc(C#N)c3N3CCC(c4nncn4C)CC3)cncc2n1 [Example 16, 3-{2-methyl-2H-pyrazolo[3,4-c]pyridin-4-yl}-2-[4-(4-methyl-4H-1,2,4-triazol-3-yl)piperidin-1-yl]benzonitrile]
25 | < 100 nM | 100 to 1000 nM | < 100 nM |  | COc1ccncc1-c1ccc(Cl)c(C#N)c1N1CCC(c2nncn2C)CC1 [Example 27, 6-chloro-3-(4-methoxypyridin-3-yl)-2-[4-(4-methyl-4H-1,2,4-triazol-3-yl)piperidin-1-yl]benzonitrile]
26 | < 100 nM | 1000 to 10000 nM | < 100 nM |  | Cn1cnnc1C1CCN(c2c(C#N)cccc2-c2ccc(OCCO)nc2)CC1 [Example 6, 3-[6-(2-hydroxyethoxy)pyridin-3-yl]-2-[4-(4-methyl-4H-1,2,4-triazol-3-yl)piperidin-1-yl]benzonitrile]
27 | < 100 nM |  | < 100 nM | < 100 nM | Cc1cc(-c2cccc(C#N)c2N2CCC(c3nncn3C)CC2)cnc1F [Example 47, 3-(6-fluoro-5-methylpyridin-3-yl)-2-(4-(4-methyl-4H-1,2,4-triazol-3-yl)piperidin-1-yl)benzonitrile]
